System: leukocytes from the peripheral blood
Assay: Release of prostaglandin E2 (PGE2) and peptide leukotrienes (pLT) from leukocytes after modulation, quantified by EIA
Assay type: cell-based, human
Conditions: for PGE2 (lipid measurement parameter A) in cell culture supernatant / pLT (lipid measurement parameter B) in cell culture supernatant: 100,000 cells/ml, 37° C., 30 minutes; for Standardized effector quotient (PGE/pLT) / Standardized modulation quotient PGE2 / Standardized modulation quotient pLT: divided by quotient of standard group
Experimental: Human leukocytes of the peripheral blood are separated from plasma with the aid of a dextran gradient, and adjusted to a defined cell count (100,000 cells/ml). Subsequently, the stimulation is effected by incubation of the cells, e.g. without or while adding arachidonic acid as modulating indicator substance, or anti-IgE as modulating effector for a defined time (30 minutes) at 37° C. in cell culture medium (e.g. RPMI 1640). After sedimentation of the cells by centrifugation for 5 minutes with 800×g at 4° C., the cell-free supernatant is collected and can be stored at −80° C. under nitrogen or argon, if desired. Afterwards, these measurement samples are transferred to a polystyrol plate coated with prostaglandin E2 or peptide leukotrienes, respectively, and incubated for 18 hours at 4° C. while adding an anti-prostaglandin-E2- or anti-peptide-leukotriene-antibody, respectively, (“competitive assay”). After a washing step, an incubation at 23° C. for 2 hours is performed with a biotinylated secondary antibody against the first antibody. After further washing, incubation follows with a streptavidin-conjugated peroxidase at 23° C. for 1 hour, and after further washing, a peroxidase substrate is added and the optical density is determined after about 30 minutes with a multichannel photometer. With the aid of the standard curves carried along, the measurement values can now be quantified and used for calculating the lipid measurement parameter stimulation/effector quotient profiles (an example for the calculation is given herein below).
1) Leukocytes from the peripheral blood of investigation group 1/standard group/investigation group 2 are obtained by blood withdrawal, followed by density gradient separation (3% dextran solution) for separating plasma and leukocytes. The leukocytes thus obtained are washed 3 times with phosphate buffered solution (PBS) and pooled/resuspended in cell culture medium ([…]), before they are adjusted to a cell count of 100,000 cells/ml (investigation group 2 only in this example; in principle, a second group is not necessary for this test, but serves here for a better understanding and as second comparison group, both to the standard group and to the investigation group).
2) The cells are divided into 3 equal parts (e.g. 3 times with 1 ml cell suspension with 100,000 cells/ml each) in reaction vessels (e.g. plastic or glass vessels).
A control solution is added to the first part-sample (=without further modulator, =zero or blank value; control solution is the solvent, in which the modulators are dissolved).
Arachidonic acid is added to the second part-sample (concentration: 10^−5 M; =indicator substance).
An anti-immunoglobulin-E solution is added to the third part-sample (e.g. 1:100 dilution of the anti-human-IgE-solution from DAKO, =modulator or modulating substance).
Exposition/incubation with the indicator substance arachidonic acid and the modulator anti-immunoglobulin-E-solution is started simultaneously at e.g. 37° C. for e.g. 30 minutes.
Thereafter, the cells are separated from the cell culture medium, e.g. by centrifugation at 4° C. with a sedimentation force of e.g. 800×g. The supernatant obtained from the 3 part-samples, separated for each part-sample, is then collected in suitable vessels (e.g. cryovessels) and stored until EIA analysis at e.g. −70° C.
3) The contents of prostaglandin E2 (PGE2) and peptide leukotrienes (pLT9) in the cell culture supernatants of the 3 part-samples are analysed and quantified by enzyme immunological assays (EIA) specific for PGE2 (=lipid measurement parameter A) and pLT (=lipid measurement parameter B), respectively.

CCCCC/C=C\C/C=C\C/C=C\C/C=C\CCCC(=O)O [arachidonic acid] was tested, and the “PGE2 (lipid measurement parameter A) in cell culture supernatant” value (shortened to “PGE2 … in cell culture supernatant”) (Investigation group 1 (I1)) was 4120 ± 236 pg/mL, the “pLT (lipid measurement parameter B) in cell culture supernatant” value (“pLT (lipid measurement parameter B)” below) (Investigation group 1 (I1)) was 150±10.4 pg/ml and the “Effector quotient (PGE/pLT)” value (Investigation group 1 (i1)) was 27.5. For the same compound, the “Modulation quotient PGE2 (modulated value / zero value A0)” value (Investigation group 1 (i1)) was 11.8, the “Modulation quotient pLT (modulated value / zero value B0)” value (Investigation group 1 (i1)) was 1.3 and the “Standardized effector quotient (PGE/pLT)” value (Investigation group 1 (i1)) was 0.941. For the same compound, the “Standardized modulation quotient PGE2” value (Investigation group 1 (i1)) was 5.1, the “Standardized modulation quotient pLT” value (Investigation group 1 (i1)) was 0.21 and the “PGE2 … in cell culture supernatant” value (Investigation group 2 (I2)) was 3976 ± 245 pg/mL. The “pLT (lipid measurement parameter B)” value (Investigation group 2 (I2)) was 128 ± 10.4 pg/ml, the “Effector quotient (PGE/pLT)” value (Investigation group 2 (i2)) was 31.1 and the “Modulation quotient PGE2 (modulated value / zero value A0)” value (Investigation group 2 (i2)) was 1.8. For the same compound, the “Modulation quotient pLT (modulated value / zero value B0)” value (Investigation group 2 (i2)) was 2.4, the “Standardized effector quotient (PGE/pLT)” value (Investigation group 2 (i2)) was 1.065 and the “Standardized modulation quotient PGE2” value (Investigation group 2 (i2)) was 0.78. The “Standardized modulation quotient pLT” value (Investigation group 2 (i2)) was 0.38, the “PGE2 … in cell culture supernatant” value (Standard group (N)) was 4170 ± 275 pg/mL and the “pLT (lipid measurement parameter B)” value (Standard group (N)) was 143 ± 12.4 pg/ml. The “Effector quotient (PGE/pLT)” value (Standard group (n)) was 29.2, the “Modulation quotient PGE2 (modulated value / zero value A0)” value (Standard group (n)) was 2.3 and the “Modulation quotient pLT (modulated value / zero value B0)” value (Standard group (n)) was 6.2. For the same compound, the “Standardized effector quotient (PGE/pLT)” value (Standard group (n)) was 1 (0.9-1.1), the “Standardized modulation quotient PGE2” value (Standard group (n)) was 1 (0.8-1.2) and the “Standardized modulation quotient pLT” value (Standard group (n)) was 1 (0.5-1.2). The “induced synthesis of prostaglandin E2 compared with persons without pathological findings” value (analgesic intolerance) was “unstriking” and the “elevation of induced synthesis of peptide leukotriene compared with persons without pathological findings” value (analgesic intolerance, unstriking to faintly elevated) was 0-40%.
